Article PMC9794428, “Enzyme Inhibitory Activities of Extracts and Carpachromene from the Stem of Ficus benghalensis” (BioMed Research International, 2022)

Legend:
PDE-1 = test system: T1, PDE-1; assay: bis(p-nitrophenyl) substrate hydrolysis, […] nm; assay type: biochemical; settings: 0.33 mM bis(p-nitrophenyl) substrate, Mg acetate, Tris-HCl pH 8.8, 37 °C
T1 construct: gene phosphodiesterase I; substrate bis(p-nitrophenyl) phosphate type, pH 8.8 and Mg acetate fit the usual snake venom phosphodiesterase I, not the docking model human PDE1B (5W6E)

[1] = target: T2, mushroom tyrosine [tyrosinase]; assay: L-DOPA oxidation, absorbance […] nm; assay type: biochemical; settings: L-DOPA (printed L-DOP) substrate, phosphate buffer, 37 °C
T2 construct: gene PPO1; docking model 1WX2 is another species (Streptomyces)

| Compound | IC50 (PDE-1; chelator used as standard) [µM] | IC50 [1] [µM] | IC50 (PDE-1) [µM] |
| --- | --- | --- | --- |
| O=C(O)CN(CCN(CC(=O)O)CC(=O)O)CC(=O)O [EDTA] | 264.1 ± 1.09 |  |  |
| CC1(C)C=Cc2c(cc3oc(-c4ccc(O)cc4)cc(=O)c3c2O)O1 [compound 1, carpachromene] |  | 40.5 ± 2 | 209.4 ± 1.87 |
| O=c1cc(CO)occ1O [Kojic acid] |  | 44 ± 1.1 |  |
